# From patent US9700516B2, “Compositions and methods for reducing overdose” (priority 2014, dated 2017)
# Test: Effect of alkalinizing agents on the pH of a solution of 0.1 N HCl with a starting pH of 2.0
# Assay type: physicochemical
# Conditions: for pH of the solution: all tested amounts, over the times tested
# Protocol: Various alkalinizing agents were added to a solution of 0.1 N HCl with a starting pH of 2.0 and the pH of the solution was tested at different time points.
structure (smiles),measurement,setting,value
[Mg+2].[OH-].[OH-] [magnesium hydroxide],pH,"60 mg per 320 mL, 2 min",2.29
same,pH,"60 mg per 320 mL, 3 min",2.41
same,pH,"60 mg per 320 mL, 4 min",2.47
same,pH,"60 mg per 320 mL, 5 min",2.48
same,pH,"60 mg per 320 mL, 6 min",2.48
same,pH,"60 mg per 320 mL, 7 min",2.49
same,pH,"60 mg per 320 mL, 8 min",2.49
same,pH,"60 mg per 320 mL, 9 min",2.49
same,pH,"60 mg per 320 mL, 10 min",2.49
same,pH,"60 mg per 320 mL, 20 min",2.50
same,pH,"60 mg per 500 mL, 2 min",2.12
same,pH,"60 mg per 500 mL, 3 min",2.17
same,pH,"60 mg per 500 mL, 4 min",2.18
same,pH,"60 mg per 500 mL, 5 min",2.19
same,pH,"60 mg per 500 mL, 6 min",2.19
same,pH,"60 mg per 500 mL, 7 min",2.19
same,pH,"60 mg per 500 mL, 8 min",2.19
same,pH,"60 mg per 500 mL, 9 min",2.19
same,pH,"60 mg per 500 mL, 10 min",2.19
same,pH,"60 mg per 500 mL, 20 min",2.19
same,effect on pH of the solution,"71 mg/200 ml, 81 mg/200 ml and 100 mg/200 ml",raised the pH of the solution to neutral or higher
same,pH,"90 mg per 320 mL, 2 min",2.37
same,pH,"90 mg per 320 mL, 3 min",2.55
same,pH,"90 mg per 320 mL, 4 min",2.77
same,pH,"90 mg per 320 mL, 5 min",3.06
same,pH,"90 mg per 320 mL, 6 min",3.13
same,pH,"90 mg per 320 mL, 7 min",3.22
same,pH,"90 mg per 320 mL, 8 min",3.28
same,pH,"90 mg per 320 mL, 9 min",3.31
same,pH,"90 mg per 320 mL, 10 min",3.33
same,pH,"90 mg per 320 mL, 20 min",3.34
same,pH,"100 mg per 320 mL, 2 min",2.36
same,pH,"100 mg per 320 mL, 3 min",2.53
same,pH,"100 mg per 320 mL, 4 min",2.74
same,pH,"100 mg per 320 mL, 5 min",3.07
same,pH,"100 mg per 320 mL, 6 min",3.39
same,pH,"100 mg per 320 mL, 7 min",3.73
same,pH,"100 mg per 320 mL, 8 min",4.26
same,pH,"100 mg per 320 mL, 9 min",5.41
same,pH,"100 mg per 320 mL, 10 min",5.86
same,pH,"100 mg per 320 mL, 20 min",6.51
same,pH,"100 mg per 500 mL, 2 min",2.21
same,pH,"100 mg per 500 mL, 3 min",2.33
same,pH,"100 mg per 500 mL, 4 min",2.38
same,pH,"100 mg per 500 mL, 5 min",2.40
same,pH,"100 mg per 500 mL, 6 min",2.40
same,pH,"100 mg per 500 mL, 7 min",2.41
same,pH,"100 mg per 500 mL, 8 min",2.41
same,pH,"100 mg per 500 mL, 9 min",2.41
same,pH,"100 mg per 500 mL, 10 min",2.41
same,pH,"100 mg per 500 mL, 20 min",2.41
same,effect on pH of the solution,"100 mg/320 ml, 180 mg/500 ml, 120 mg/320 ml, 200 mg/500 ml and 240 mg/500 ml",rapidly raised the pH of the solution to neutral or higher
same,pH,"120 mg per 320 mL, 2 min",2.49
same,pH,"120 mg per 320 mL, 3 min",2.87
same,pH,"120 mg per 320 mL, 4 min",3.54
same,pH,"120 mg per 320 mL, 5 min",5.75
same,pH,"120 mg per 320 mL, 6 min",6.65
same,pH,"120 mg per 320 mL, 7 min",7.81
same,pH,"120 mg per 320 mL, 8 min",8.55
same,pH,"120 mg per 320 mL, 9 min",8.83
same,pH,"120 mg per 320 mL, 10 min",8.94
same,pH,"120 mg per 320 mL, 20 min",9.20
same,pH,"120 mg per 500 mL, 2 min",2.21
same,pH,"120 mg per 500 mL, 3 min",2.35
same,pH,"120 mg per 500 mL, 4 min",2.44
same,pH,"120 mg per 500 mL, 5 min",2.52
same,pH,"120 mg per 500 mL, 6 min",2.57
same,pH,"120 mg per 500 mL, 7 min",2.59
same,pH,"120 mg per 500 mL, 8 min",2.59
same,pH,"120 mg per 500 mL, 9 min",2.59
same,pH,"120 mg per 500 mL, 10 min",2.59
same,pH,"120 mg per 500 mL, 20 min",2.60
same,effect on pH of the solution,160 mg/320 ml (0.5 mg/ml),rapidly raised the pH of the solution to neutral or higher
same,pH,"180 mg per 500 mL, 2 min",2.56
same,pH,"180 mg per 500 mL, 3 min",3.09
same,pH,"180 mg per 500 mL, 4 min",3.90
same,pH,"180 mg per 500 mL, 5 min",5.69
same,pH,"180 mg per 500 mL, 6 min",6.28
same,pH,"180 mg per 500 mL, 7 min",6.64
same,pH,"180 mg per 500 mL, 8 min",7.01
same,pH,"180 mg per 500 mL, 9 min",7.61
same,pH,"180 mg per 500 mL, 10 min",8.25
same,pH,"180 mg per 500 mL, 20 min",9.07
same,pH,"200 mg per 500 mL, 2 min",2.48
same,pH,"200 mg per 500 mL, 3 min",2.81
same,pH,"200 mg per 500 mL, 4 min",3.54
same,pH,"200 mg per 500 mL, 5 min",5.42
same,pH,"200 mg per 500 mL, 6 min",6.63
same,pH,"200 mg per 500 mL, 7 min",7.99
same,pH,"200 mg per 500 mL, 8 min",8.86
same,pH,"200 mg per 500 mL, 9 min",9.07
same,pH,"200 mg per 500 mL, 10 min",9.18
same,pH,"200 mg per 500 mL, 20 min",9.41
same,pH,"240 mg per 500 mL, 2 min",2.54
same,pH,"240 mg per 500 mL, 3 min",3.14
same,pH,"240 mg per 500 mL, 4 min",5.90
same,pH,"240 mg per 500 mL, 5 min",7.73
same,pH,"240 mg per 500 mL, 6 min",9.09
same,pH,"240 mg per 500 mL, 7 min",9.35
same,pH,"240 mg per 500 mL, 8 min",9.47
same,pH,"240 mg per 500 mL, 9 min",9.54
same,pH,"240 mg per 500 mL, 10 min",9.59
same,pH,"240 mg per 500 mL, 20 min",9.71
same,pH of the solution,,above 2.0
O=C([O-])O.[Na+] [sodium bicarbonate],pH,"20 mg per 320 mL, 0 min",2.02
same,pH,"20 mg per 320 mL, 1 min",2.04
same,pH,"20 mg per 320 mL, 2 min",2.05
same,pH,"20 mg per 320 mL, 3 min",2.05
same,pH,"20 mg per 320 mL, 4 min",2.05
same,pH,"20 mg per 320 mL, 5 min",2.05
same,pH,"20 mg per 320 mL, 6 min",2.05
same,pH,"20 mg per 320 mL, 7 min",2.05
same,pH,"20 mg per 320 mL, 8 min",2.05
same,pH,"20 mg per 320 mL, 9 min",2.05
same,pH,"20 mg per 320 mL, 10 min",2.05
same,pH,"20 mg per 320 mL, 20 min",2.05
same,pH,"20 mg per 320 mL, 30 min",2.05
same,pH,"20 mg per 320 mL, 40 min",2.05
same,pH,"20 mg per 320 mL, 50 min",2.05
same,pH,"20 mg per 320 mL, 60 min",2.05
same,effect on pH of the solution,"20 mg/320 ml and 40 mg/320 ml, 60 minute timecourse",neither amount tested was sufficient to raise the pH to neutral or higher
same,pH,"40 mg per 320 mL, 0 min",2.05
same,pH,"40 mg per 320 mL, 1 min",2.08
same,pH,"40 mg per 320 mL, 2 min",2.08
same,pH,"40 mg per 320 mL, 3 min",2.08
same,pH,"40 mg per 320 mL, 4 min",2.08
same,pH,"40 mg per 320 mL, 5 min",2.09
same,pH,"40 mg per 320 mL, 6 min",2.09
same,pH,"40 mg per 320 mL, 7 min",2.09
same,pH,"40 mg per 320 mL, 8 min",2.09
same,pH,"40 mg per 320 mL, 9 min",2.09
same,pH,"40 mg per 320 mL, 10 min",2.09
same,pH,"40 mg per 320 mL, 20 min",2.09
same,pH,"40 mg per 320 mL, 30 min",2.09
same,pH,"40 mg per 320 mL, 40 min",2.09
same,pH,"40 mg per 320 mL, 50 min",2.09
same,pH,"40 mg per 320 mL, 60 min",2.09
same,pH,"50 mg/200 ml, 0 min",1.71
same,pH,"50 mg/200 ml, 10 min",1.72
same,pH,"50 mg/200 ml, 20 min",1.72
same,pH,"50 mg/200 ml, 30 min",1.72
same,pH,"50 mg/200 ml, 40 min",1.72
same,pH,"100 mg/200 ml, 0 min",1.71
same,pH,"100 mg/200 ml, 10 min",1.76
same,pH,"100 mg/200 ml, 20 min",1.75
same,pH,"100 mg/200 ml, 30 min",1.75
same,pH,"100 mg/200 ml, 40 min",1.75
same,effect on pH of the solution,"50 and 100 mg/200 ml, 40 minute timecourse",neither tested amount was sufficient to raise the pH
same,pH of the solution,,above 2.0
